Assay results published in patent US20250197399A1, “COMPOUNDS, COMPOSITIONS, AND METHODS” (Tenvie Therapeutics, Inc., priority 2022, published 2025).
Like-named read-outs stand apart in the source and are kept apart here.

Test system: NLRP3
Assay: IL-1β secretion assay in PMA-differentiated, LPS/nigericin-stimulated THP-1 cells (ELISA)
Assay type: cell-based
Details: 25 ng/mL LPS then nigericin, IL-1β in supernatant
Description: Compounds as provided herein were tested in the following assay. Cell culture medium employed contained RPMI 1640 medium (89%), FBS (10%), Pen/Strep (1%), and 2-mercaptoethanol (0.05 mM). Freezing medium was made up of 90% FBS and 10% DMSO. THP-1 cells were removed from the liquid nitrogen and placed into a 37° C. water bath to thaw, until signs of ice dissipated. The cells were then added to 9 mL of warm cell culture medium and centrifuged for 5 minutes at 1000 rpm. The supernatant was discarded, and the cells were resuspended in new cell culture medium. THP-1 cells were then split and cultured in the cell culture medium, being passaged every 2-3 days with the cell density will be maintained between 5×10^5 and 1.5×10^6 viable cells/mL.
PMA was dissolved in DMSO to make a stock solution at 5 mg/ml and stored in 10 μl aliquots at −20° C. for single use. PMA is added to normal growth medium. LPS was diluted with 1 mL of water solution to provide a 1 mg/mL stock solution and stored in 15 μL aliquots at −20° C. for single use. Nigericin is diluted in ice cold 100% ethanol to 5 mg/ml (6.7 mM) and stored in 75 μL aliquots at −20° C. for single use. Serum-free media contains RPMI 1640 medium (99%), Pen/Strep (1%), and 2-mercaptoethanol (0.05 mM). The two control conditions used to qualify and normalize test compound dose-response curves were as follows: High Control=25 ng/mL LPS, […], 0.5% DMSO, Low Control=25 ng/mL, LPS, 0.5% DMSO.
THP-1 cells were diluted to provide a suspension at a concentration of 1.0×10^6 cells/mL with the total volume of suspension required to enable the desired number of assay plates. The growth media was supplemented with PMA (5 ng/mL final concentration) and the cells were incubated at 37° C. under a humidified atmosphere of 5% CO2 for 40 h.
All media was carefully aspirated from each culture flask. The cells were washed carefully with 1×DPBS. The cells were then briefly digested with trypsin LE for 5 minutes at 23° C. and immediately resuspended in cell growth media. After resuspension, the cells were centrifuged at 1000 rpm for 3 minutes and the supernatant was discarded. The cells were resuspended in DPBS and once again centrifuged at 1000 rpm for 5 minutes. The supernatant was discarded and the cell pellet was resuspended in serum-free media supplemented with LPS (25 ng/mL final concentration) to enable the distribution of 30K THP-1 cells within 45 μL of media into each well of 384-well PDL-coated plates. The 384-well plates were then incubated at 37° C. under a humidified atmosphere of 5% CO2 for 2 h. Following this period, test compounds were dispensed by Tecan across the desired concentration range with all wells normalized to a final 0.5% DMSO concentration. The plates were then then incubated at 37° C. under a humidified atmosphere of 5% CO2 for 1 h. Following this period, 5 μL of the 5 mg/mL nigericin stock solution was added to each of the appropriate wells and plates were centrifuged at 1000 rpm for 30 seconds. The plates were the immediately reintroduced to the incubator at 37° C. under a humidified atmosphere of 5% CO2 for 2 h. After this time, 35 μL/well of supernatant was collected and transferred into v-bottom plate and centrifuged at 1000 rpm for 1 minute. These supernatant aliquots were analyzed using an IL-Iβ detection kit as described below. If needed, the test samples could be snap frozen and stored at −80° C. until analyzed.
To prepare each ELISA plate, capture antibody (mAb Mt175) was diluted with PBS to a final concentration of […] and then 20 μL of this solution was added to each well of the ELISA plate. Each plate was allowed to incubate overnight at 4° C. The next day, the capture antibody solution was removed and discarded. Each ELISA plate was washed 4 times with PBST followed by the addition of 25 µL/well of blocking buffer (Licor-927-40010) supplemented with 0.1% Tween 20. Each ELISA plate was then allowed to incubate for 1 hour at 23° C. […]

[1] = Homo sapiens, THP-1, THP-1 cells, read-out: Activity (IC50 class)
[2] = THP-1 cells, read-out: Activity
[3] = THP-1 cells, read-out: Activity (IC50 class)
[4] = Homo sapiens, THP-1, THP-1 cells, read-out: Activity

SMILES | IC50 [1] [nM] | IC50 [2] [nM] | IC50 [3] [nM] | IC50 [4] [nM]
O=C(CN1CC2(CC2(F)F)c2cc(C3(F)CC3)ccc2C1=O)Nc1ncc(F)cn1 (single isomer, unassigned) [Example 26, N-(5-fluoropyrimidin-2-yl)-2-[1′,1′-difluoro-6-(1-fluorocyclopropyl)-1-oxospiro[3H-isoquinoline-4,2′-cyclopropane]-2-yl]acetamide] | 1000 to 10000 | 5880 | – | –
C[C@]1(O)C[C@@H](NC(=O)CN2CC3(CC3(F)F)c3cc(C(F)(F)F)ccc3C2=O)C1 (single isomer, unassigned) [Example 53, 2-[1′,1′-difluoro-1-oxo-6-(trifluoromethyl)spiro[3H-isoquinoline-4,2′-cyclopropane]-2-yl]-N-(3-cis-hydroxy-3-methylcyclobutyl)acetamide] | – | 472 | < 1000 | –
C[C@]1(O)C[C@@H](NC(=O)CN2CC3(CC3(F)F)c3cc(C(F)(F)F)ccc3C2=O)C1 (single isomer, unassigned) [Example 52, 2-[1′,1′-difluoro-1-oxo-6-(trifluoromethyl)spiro[3H-isoquinoline-4,2′-cyclopropane]-2-yl]-N-(3-cis-hydroxy-3-methylcyclobutyl)acetamide] | – | 22400 | > 10000 | –
O=C(CN1CC2(CC2(F)F)c2cc(C(F)(F)F)ccc2C1=O)Nc1ncc(F)cn1 (single isomer, unassigned) [Example 41, N-(5-fluoropyrimidin-2-yl)-2-[1′,1′-difluoro-6-(trifluoromethyl)-1-oxospiro[3H-isoquinoline-4,2′-cyclopropane]-2-yl]acetamide] | – | 67 | < 1000 | –
C[C@]1(O)C[C@@H](NC(=O)CN2CC3(CC3(F)F)c3cc(Br)ccc3C2=O)C1 (single isomer, unassigned) [Example 20, N-(3-cis-hydroxy-3-methylcyclobutyl)-2-[6-bromo-1′,1′-difluoro-1-oxospiro[3H-isoquinoline-4,2′-cyclopropane]-2-yl]acetamide] | – | 12900 | > 10000 | –
O=C(CN1CC(C(F)(F)F)c2cc(I)ccc2C1=O)Nc1ncc(Cl)cn1 (centres unmarked) [Example 7, N-(5-chloropyrimidin-2-yl)-2-(6-iodo-1-oxo-4-(trifluoromethyl)-3,4-dihydroisoquinolin-2(1H)-yl)acetamide] | < 1000 | – | – | 17
O=C(CN1CC2(CC2)c2c(ccc(Br)c2F)C1=O)Nc1ncc2nc[nH]c2n1 [Example 62, 2-(6-bromo-5-fluoro-1-oxospiro[3H-isoquinoline-4,1′-cyclopropane]-2-yl)-N-(9H-purin-2-yl)acetamide] | < 1000 | – | – | 80
Cc1cnc(NC(=O)CN2CC3(CC3(F)F)c3c(ccc(C4CC4)c3F)C2=O)nc1 (single isomer, unassigned) [Example 36, N-(5-methylpyrimidin-2-yl)-2-[6-cyclopropyl-1′,1′,5-trifluoro-1-oxospiro[3H-isoquinoline-4,2′-cyclopropane]-2-yl]acetamide] | – | 22400 | > 10000 | –
O=C(CN1C[C@]2(C[C@H]2F)c2c(ccc(Cl)c2F)C1=O)Nc1ncc2cn[nH]c2n1 (single isomer, unassigned) [Example 45, 2-[(2′s,4r)-6-chloro-2′,5-difluoro-1-oxospiro[3H-isoquinoline-4,1′-cyclopropane]-2-yl]-N-(1H-pyrazolo[3,4-d]pyrimidin-6-yl)acetamide] | < 1000 | – | – | 48
O=C(CN1CC2(CC2(F)F)c2c(ccc(C(F)(F)F)c2F)C1=O)Nc1ncc(Cl)cn1 (single isomer, unassigned) [Example 15, N-(5-chloropyrimidin-2-yl)-2-[1′,1′,5-trifluoro-6-(trifluoromethyl)-1-oxospiro[3H-isoquinoline-4,2′-cyclopropane]-2-yl]acetamide] | – | 63 | < 1000 | –
O=C(CN1CC2(CC2(F)F)c2cc(C3(F)CC3)ccc2C1=O)Nc1ncc(F)cn1 (single isomer, unassigned) [Example 27, N-(5-fluoropyrimidin-2-yl)-2-[1′,1′-difluoro-6-(1-fluorocyclopropyl)-1-oxospiro[3H-isoquinoline-4,2′-cyclopropane]-2-yl]acetamide] | – | 128 | < 1000 | –
C[C@]1(O)C[C@@H](NC(=O)CN2C[C@]3(C[C@H]3F)c3c(ccc(I)c3F)C2=O)C1 [Example 5, N-(3-cis-hydroxy-3-methylcyclobutyl)-2-[(2′s,4r)-2′,5-difluoro-6-iodo-1-oxospiro[3H-isoquinoline-4,1′-cyclopropane]-2-yl]acetamide] | < 1000 | – | – | 2
C[C@]1(O)C[C@@H](NC(=O)CN2CC3(CC3(F)F)c3cc(Br)ccc3C2=O)C1 (single isomer, unassigned) [Example 21, N-(3-cis-hydroxy-3-methylcyclobutyl)-2-[6-bromo-1′,1′-difluoro-1-oxospiro[3H-isoquinoline-4,2′-cyclopropane]-2-yl]acetamide] | – | 58 | < 1000 | –
O=C(CN1CC2(CC2(F)F)c2cc(Br)ccc2C1=O)Nc1ncc2cn[nH]c2n1 (centres unmarked) [Example 63, 2-(6-bromo-1′,1′-difluoro-1-oxospiro[3H-isoquinoline-4,2′-cyclopropane]-2-yl)-N-(1H-pyrazolo[3,4-d]pyrimidin-6-yl)acetamide] | < 1000 | – | – | 34
O=C(CN1C[C@]2(C[C@H]2F)c2c(ccc(Cl)c2F)C1=O)Nc1ncc(Cl)cn1 (single isomer, unassigned) [Example 43, 2-[(2′s,4r)-6-chloro-2′,5-difluoro-1-oxospiro[3H-isoquinoline-4,1′-cyclopropane]-2-yl]-N-(5-chloropyrimidin-2-yl)acetamide] | < 1000 | – | – | 51
N#Cc1cnc(NC(=O)CN2C[C@]3(C[C@H]3F)c3cc(C4(F)CC4)ccc3C2=O)nc1 [Example 3, 2-[(2′R,4S)-2′-fluoro-6-(1-fluorocyclopropyl)-1-oxospiro[3H-isoquinoline-4,1′-cyclopropane]-2-yl]-N-(5-cyanopyrimidin-2-yl)acetamide] | < 1000 | – | – | 17
O=C(CN1CC2(CC2(F)F)c2cc(C(F)(F)F)ccc2C1=O)Nc1ncc(F)cn1 (single isomer, unassigned) [Example 40, N-(5-fluoropyrimidin-2-yl)-2-[1′,1′-difluoro-6-(trifluoromethyl)-1-oxospiro[3H-isoquinoline-4,2′-cyclopropane]-2-yl]acetamide] | 1000 to 10000 | 9370 | – | –
Cc1cnc(NC(=O)CN2CC(C(F)(F)F)c3cc(I)ccc3C2=O)nc1 (centres unmarked) [Example 8, 2-(6-iodo-1-oxo-4-(trifluoromethyl)-3,4-dihydroisoquinolin-2(1H)-yl)-N-(5-methylpyrimidin-2-yl)acetamide] | < 1000 | – | – | 44
Cc1cnc(NC(=O)CN2CC3(CC3(F)F)c3cc(Br)ccc3C2=O)nc1 (single isomer, unassigned) [Example 19, N-(5-methylpyrimidin-2-yl)-2-[6-bromo-1′,1′-difluoro-1-oxospiro[3H-isoquinoline-4,2′-cyclopropane]-2-yl]acetamide] | – | 65 | < 1000 | –
